From ChEMBL document CHEMBL5226384, “Total Syntheses, Absolute Configurations, and Cytotoxicity Evaluation of Ugonstilbenes A, B, and C from the Rhizomes of Helminthostachys zeylanica” (J Nat Prod, 2023)

How the values were obtained:
HT-29 = experiment: Cytotoxicity against human HT-29 cells assessed as reduction in cell viability incubated for 6 hrs by SRB assay; format: functional, cell-based; conditions: HT-29, 6 h
CCRF-CEM = experiment: Cytotoxicity against human CCRF-CEM cells assessed as reduction in cell viability incubated for 6 hrs by SRB assay; format: functional, cell-based
MCF7 = experiment: Cytotoxicity against human MCF7 cells assessed as reduction in cell viability incubated for 6 hrs by SRB assay; format: functional, cell-based; conditions: MCF7, 6 h
NCI-H460 = experiment: Cytotoxicity against human NCI-H460 cells assessed as reduction in cell viability incubated for 6 hrs by SRB assay; format: functional, cell-based; conditions: NCI-H460, 6 h
[1] = Cytotoxicity against fibroblast (unknown origin) cells assessed as reduction in cell viability incubated for 6 hrs by SRB assay; format: toxicity, cell-based

SMILES	IC50 (HT-29) [nM]	IC50 (CCRF-CEM) [nM]	IC50 (MCF7) [nM]	IC50 (NCI-H460) [nM]	IC50 at 6 h [1] [nM]
CC1=CCCC(C)(C)[C@@H]1Cc1cc(/C=C/c2cc(O)cc(O)c2)ccc1O	5200	3000	4100	5500	7100
CC1=CCCC(C)(C)[C@H]1Cc1cc(/C=C/c2cc(O)cc(O)c2)ccc1O	5000	2800	4400	6000	7400
CC1(C)CCC[C@]2(C)Oc3cc(/C=C/c4ccc(O)cc4)cc(O)c3C[C@H]12	3600	1700	1900	1400	6600
CC1(C)CCC[C@]2(C)Oc3ccc(/C=C/c4cc(O)cc(O)c4)cc3C[C@H]12	3300	1400	1700	2200	8000
CC1=CCCC(C)(C)[C@H]1Cc1c(O)cc(/C=C/c2ccc(O)cc2)cc1O	2500	820	1700	1700	6600
CC1(C)CCC[C@@]2(C)Oc3cc(/C=C/c4ccc(O)cc4)cc(O)c3C[C@@H]12	2200	1100	1400	1700	7100
CC1=CCCC(C)(C)[C@@H]1Cc1c(O)cc(/C=C/c2ccc(O)cc2)cc1O	4400	270	8000	1700	6600
CC1(C)CCC[C@@]2(C)Oc3ccc(/C=C/c4cc(O)cc(O)c4)cc3C[C@@H]12	2800	1400	2800	2500	6900
COc1cccc2c1C(=O)c1c(O)c3c(c(O)c1C2=O)C[C@@](O)(C(=O)CO)C[C@@H]3O[C@H]1C[C@H](N)[C@H](O)[C@H](C)O1 [DOXORUBICIN]	120	90	270	10	67000
Oc1ccc(/C=C/c2cc(O)cc(O)c2)cc1 [RESVERATROL]	120000	900	135000	58000	218000
